Columns and labels:
PPARα = target: T1, PPARα (Homo sapiens, UniProt Q07869); assay: PPARα ligand activity, GAL4-PPARα reporter luciferase assay in CV-1 cells; format: cell-based; conditions: 24 hr incubation, KetoA and HYA each at 30 μM, other fatty acids by a similar method
T1 construct: expressed in transfected cells; host or cells: CV-1 (African green monkey kidney)
T1 sequence (Q07869 239-466 limits assumed): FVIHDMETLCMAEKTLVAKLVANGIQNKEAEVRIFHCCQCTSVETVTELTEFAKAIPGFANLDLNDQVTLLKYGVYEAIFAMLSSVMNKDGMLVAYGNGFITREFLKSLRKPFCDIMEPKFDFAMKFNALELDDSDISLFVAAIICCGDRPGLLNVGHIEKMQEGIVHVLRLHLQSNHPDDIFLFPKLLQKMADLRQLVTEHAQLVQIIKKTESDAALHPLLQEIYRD
Procedure: (§1) To evaluate the function of oxo fatty acid and the like, PPARα, γ-activating action was measured first. The measurement was performed in reference to Nobuyuki Takahashi et al., FEES Letters 514 (2002) p. 315-322, “Dual action of isoprenols from herbal medicines on both PPARgamma and PPARalpha in 3T3-L1 adipocytes and HepG2 hepatocytes.”, the section of Materials and Methods “Reporter plasmids and luciferase assays”. To be specific, a plasmid containing DNA encoding a fused protein of PPARα, γ ligand binding region and GAL4 DNA binding region (pM-hPPARα or pM-hPPARγ), a reporter plasmid containing GAL4 binding DNA sequence linked to luciferase (p4xUASg-tk-luc), and internal control (pRL-CMV) to standardize transfection efficiency were introduced into CV-1 cell derived from the kidney of African green monkey. The ligand described below was added to the cells and, after incubation for 24 hr, luciferase activity was measured. As a ligand, KetoA and HYA were each added at 30 μM.
(§2) The concentration of the sample was adjusted with ethanol. Ethanol was used as a negative control, […], and GW7647 (10 nM) and Troglitazone (5 μM) were used as […].

HepG2 cells [1] = assay: Intracellular triacylglycerol accumulation by LXR agonist; format: cell-based, human; conditions: 10 nM T0901317 alone, 24 hr
Procedure: HepG2 cells (2.0×10^5 cells/mL) were cultured in DMEM medium containing 10% FES for 24 hr, and the medium was exchanged with 0.1% BSA-containing DMEM medium containing 10 nM LXR agonist T0901317 (Cayman Chemicals) and 60 μM various fatty acid. After culture for 24 hr, the cells were recovered, and total RNA was extracted using Sepasol reagent (Nacalai Tesque). After DNase treatment, reverse transcription was performed using SuperScriptII (Invitrogen) to give a cDNA solution. Using SYBR Green Mix (Bio-Rad, Richmond, Calif.) and gene-specific primer (Table 1), real-time PCR was performed as follows.
1. Reaction at 96° C., 15 min, 2. reaction at 96° C., 15 sec, 3. reaction at 60° C. for 30 sec, 4. measurement of fluorescence, 5. 2-4 were repeated 40 times, 6. the melting curve was measured from 65° C. to 95° C. at 0.4° C. intervals. As the internal standard, 18S rRNA was used. The genes involved in the fatty acid synthesis as measured were Sterol regulatory element binding protein-1c (SREBP-1c), Stearoyl coenzyme A desaturase-1 (SCD-1), Fatty acid synthase (FAS), and Acetyl CoA carboxylase-1 and -2 (ACC-1, 2). As for the amount of accumulated intracellular TG, the lipid was extracted with chloroform-methanol, and quantified by triglyceride-′E Test Wako (Wako Pure Chemical Industries, Ltd.).

HepG2 cells [2] = assay: Effect on LXR agonist-induced expression of fatty acid synthesis genes, real-time PCR; format: cell-based, human; conditions: 10 nM T0901317 alone, 24 hr
LXR = target: T2, LXR (Homo sapiens, UniProt Q13133); assay: Antagonizing action on LXR by luciferase assay; format: cell-based; conditions: overall finding from SREBP-1c, SREBP-1, SCD-1, FAS, ACC1, 2, triacylglycerol and LXR luciferase measurements in HepG2 cells
T2 construct: expressed in transfected cells; host or cells: HepG2 (human liver cancer-derived)
T2 sequence (Q13133 1-447): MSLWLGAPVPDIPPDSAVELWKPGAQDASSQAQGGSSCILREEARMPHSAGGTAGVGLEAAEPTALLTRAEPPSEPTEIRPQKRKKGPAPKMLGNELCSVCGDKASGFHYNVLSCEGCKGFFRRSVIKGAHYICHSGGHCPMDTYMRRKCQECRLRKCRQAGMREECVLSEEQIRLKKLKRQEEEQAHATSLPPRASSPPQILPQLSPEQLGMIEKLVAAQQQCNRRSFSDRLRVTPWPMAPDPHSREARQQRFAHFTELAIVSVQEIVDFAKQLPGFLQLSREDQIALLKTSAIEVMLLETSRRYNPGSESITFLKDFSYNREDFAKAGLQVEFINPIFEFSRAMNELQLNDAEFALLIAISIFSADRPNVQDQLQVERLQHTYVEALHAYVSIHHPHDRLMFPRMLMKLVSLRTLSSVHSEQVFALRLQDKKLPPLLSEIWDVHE
Procedure: In addition, the protein expression level of immature and mature SREBP-1c was measured. Cells treated as mentioned above were dispersed in buffer A (250 mM sucrose, 10 mM HEPES-KOH, 10 mM KCl, 1.5 mM MgCl2, 1 mM EDTA-Na, 1 mM EGTA-Na, pH 7.6) containing a protease inhibitor, passed 20 times through a 23 gauge injection needle, and centrifuged (1,000×g, 4° C., 5 min) to separate into supernatant 1 and precipitate 1. The precipitate 1 was re-dissolved in buffer B (20 mM HEPES-KOH, 0.42 M NaCl, 2.5% glycerol, 1.5 mM MgCl2, 1 mM EDTA-Na, 1 mM EGTA-Na, pH 7.6), and centrifuged (10^5×g, 4° C., 15 min). The obtained supernatant 2 was used as a nuclear fraction (including mature form). The supernatant 1 was further centrifuged (10^5×g, 4° C., 15 min), and the obtained precipitate 2 was dissolved in cell lysate (10 mM Tris-HCl, 100 mM NaCl, 1% SDS, 1 mM EDTA-Na, 1 mM EGTA-Na) and used as a membrane fraction (including immature form). Using these as samples, measurement was performed by Western blot method using anti-SREBP-1 polyclonal antibody (Santa Cruz). Using Dual luciferase system (Promega), antagonizing action on LXR was evaluated by luciferase assay. p3xIR1-tk-Luc, pCMX-hLXRa, pRL-CMX were introduced into HepG2 cell. After culture in a 0.1% BSA-containing serum-free medium containing various fatty acids and T0901317 for 24 hr, the luciferase activity was measured.

PPARγ = target: T3, PPARγ (Homo sapiens, UniProt P37231); assay: PPARγ ligand activity, GAL4-PPARγ reporter luciferase assay in CV-1 cells; format: cell-based; conditions: 24 hr incubation, KetoA and HYA each at 30 μM, other fatty acids by a similar method
T3 construct: expressed in transfected cells; host or cells: CV-1 (African green monkey kidney)
T3 sequence (P37231 238-503 limits assumed): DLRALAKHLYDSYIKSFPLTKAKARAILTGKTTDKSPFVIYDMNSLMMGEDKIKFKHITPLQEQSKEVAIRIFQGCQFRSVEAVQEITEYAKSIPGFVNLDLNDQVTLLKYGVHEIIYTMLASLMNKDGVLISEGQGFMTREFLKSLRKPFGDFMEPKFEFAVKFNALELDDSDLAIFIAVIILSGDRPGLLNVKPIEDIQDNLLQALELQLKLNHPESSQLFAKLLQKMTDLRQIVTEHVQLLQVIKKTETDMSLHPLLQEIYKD
Procedure: as §1, §2

| SMILES | PPARα agonist activity (relative luciferase activity) (PPARα) | lipid synthesis suppressive action by the antagonizing action on LXR (LXR) | PPARγ agonist activity (relative luciferase activity) (PPARγ) | intracellular triacylglycerol level (HepG2 cells [1]) | expression of SREBP-1c mRNA (HepG2 cells [2]) |
| --- | --- | --- | --- | --- | --- |
| O=S(=O)(c1ccccc1)N(CC(F)(F)F)c1ccc(C(O)(C(F)(F)F)C(F)(F)F)cc1 [T0901317, reference compound] | – | – | – | increased | about 7 fold |
| CCCCCC[C@@H](O)C/C=C\CCCCCCCC(=O)O [RA, ricinoleic acid] | PPARα agonist activity | lipid synthesis suppressive action | – | – | – |
| CCCCCC/C=C/C(=O)CC/C=C\CCCCC(=O)O [γKetoC, 10-oxo-cis-6,trans-11-octadecadienoic acid] | PPARα and γ agonist activity | – | PPARα and γ agonist activity | – | – |
| CCCCCCC(O)CCCCCCCCCCC(=O)O (stereo not shown) [rHYB, 12-hydroxyoctadecanoic acid] | PPARα agonist activity | lipid synthesis suppressive action | – | – | – |
| CCCCC/C=C\CC(O)CC/C=C\CCCCC(=O)O (stereo not drawn) [γHYA, 10-hydroxy-cis-6,cis-12-octadecadienoic acid] | PPARα agonist activity | lipid synthesis suppressive action | – | – | – |
| CC/C=C\CC/C=C/C(=O)CCCCCCCCC(=O)O [αKetoC, 10-oxo-trans-11,cis-15-octadecadienoic acid] | PPARα and γ agonist activity | – | PPARα and γ agonist activity | – | – |
| CCCCCC/C=C/C(=O)CCCCCCCCC(=O)O [KetoC, 10-oxo-trans-11-octadecenoic acid] | PPARα and γ agonist activity | – | PPARα and γ agonist activity | – | – |

The next lines start with results.

| PPARα agonist activity (relative luciferase activity) (PPARα) | lipid synthesis suppressive action by the antagonizing action on LXR (LXR) | PPARγ agonist activity (relative luciferase activity) (PPARγ) | SMILES | intracellular triacylglycerol level (HepG2 cells [1]) | expression of SREBP-1c mRNA (HepG2 cells [2]) |
| --- | --- | --- | --- | --- | --- |
| PPARα agonist activity | – | – | CC/C=C\C/C=C\CC(O)CCCCCCCCC(=O)O (stereo not drawn) [αHYA, 10-hydroxy-cis-12,cis-15-octadecadienoic acid] | – | – |
| PPARα agonist activity | – | – | CCCCCCCCC(=O)CCCCCCCCC(=O)O [KetoB, 10-oxooctadecanoic acid] | – | – |
| PPARα agonist activity | lipid synthesis suppressive action | – | CCCCCCC(=O)CCCCCCCCCCC(=O)O [rKetoB, 12-oxooctadecanoic acid] | – | – |
| – | lipid synthesis suppressive action | PPARγ agonist activity | CCCCC/C=C\CC(=O)CC/C=C\CCCCC(=O)O [γKetoA, 10-oxo-cis-6,cis-12-octadecadienoic acid] | – | – |
| – | lipid synthesis suppressive action | PPARγ agonist activity | CC/C=C\C/C=C\CC(=O)CCCCCCCCC(=O)O [αKetoA, 10-oxo-cis-12,cis-15-octadecadienoic acid] | – | – |
| PPARα agonist activity | – | – | CCCCCCC(O)CC(O)CCCCCCCCC(=O)O (stereo not shown) [rHYA, 10,12-dihydroxyoctadecanoic acid] | – | – |
| PPARα agonist activity | lipid synthesis suppressive action | – | CCCCCCCCC(O)CCCCCCCCC(=O)O (stereo not shown) [HYB, 10-hydroxyoctadecanoic acid] | – | – |
